Patent publication US10501421B1, “Substituted benzimidazoles as modulators of Ras signaling” (VANDERBILT UNIVERSITY, priority 2017, dated 2019)
Where a name gives a salt, the structure may show the parent alone.

Tests used:
[1] = target: Ras GEF SOS (Son of Sevenless) (Homo sapiens, UniProt Q07889); test: SOS-mediated nucleotide exchange on Ras (BODIPY-GDP fluorescence); type: biochemical; settings: SOS-mediated exchange of BODIPY-GDP for GTP on Ras
Description: Compounds of the present invention were tested for their ability to modify the rate at which Ras exchanges a labeled nucleotide guanosine diphosphate (GDP) analog for guanosine triphosphate (GTP). Briefly, test compounds, then GTP and the Ras GEF SOS (Son of Sevenless) are added to a buffered solution containing Ras protein loaded with BODIPY-GDP. Changes in fluoresence indicating exchange of the labeled GDP for GTP are monitored over time. Raw fluorescence data was fit to a single exponential decay function and derived rates were plotted as mean values. EC50 values were calculated by plotting mean derived rates as a function of compound concentration and fit using a four-parameter dose-response curve. This assay is performed in a method analogous to the assay disclosed in: Burns, M. C.; Sun, Q.; Daniels, R. N.; Camper, D. V.; Kennedy, J. P.; Phan, J.; Olejniczak, E. O.; Lee, T.; Waterson, A. G.; Rossanese, O. W.; Fesik, S. W. “Approach for targeting Ras with small molecules that activate SOS-mediated nucleotide exchange” Proc. Natl. Acad. Sci. 2014; 11(9): 3401-3406. PMCID: PMC3948241.

[2] = target: T1, Son of Sevenless (SOS) (Homo sapiens, UniProt Q07889); test: Binding to SOS, fluorescence polarization anisotropy (FPA) probe displacement; settings: displacement of FITC-conjugated probe (Example 285), affinity calculated from IC50
T1 sequence (Q07889 564-1049 limits assumed): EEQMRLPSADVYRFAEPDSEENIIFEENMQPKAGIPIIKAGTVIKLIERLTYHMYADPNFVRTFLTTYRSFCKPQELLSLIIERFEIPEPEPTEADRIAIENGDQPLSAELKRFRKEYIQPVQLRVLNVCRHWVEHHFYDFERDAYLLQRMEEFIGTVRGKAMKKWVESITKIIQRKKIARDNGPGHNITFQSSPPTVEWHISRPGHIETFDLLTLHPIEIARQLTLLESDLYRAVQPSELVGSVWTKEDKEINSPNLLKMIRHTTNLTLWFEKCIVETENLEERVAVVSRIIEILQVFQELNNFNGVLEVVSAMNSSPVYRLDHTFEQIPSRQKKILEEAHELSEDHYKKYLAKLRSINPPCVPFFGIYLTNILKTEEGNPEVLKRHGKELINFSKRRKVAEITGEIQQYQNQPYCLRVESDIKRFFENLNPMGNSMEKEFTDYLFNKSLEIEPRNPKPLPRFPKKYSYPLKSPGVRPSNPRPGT
Description: Compounds of the present invention were tested for their ability to bind to the Ras guanine exchange factor (GEF) Son of Sevenless (SOS). Binding to SOS was measured using a Fluorescence polarization anisotropy (FPA) assay that assesses the ability of a test compound to displace a fluorescent FITC-conjugated compound (Example 285). Briefly, the labeled probe compound is incubated with SOS in buffer. Changes in anisotropy indicative of displacement of the labeled probe for a test compound are assessed over a dose range of test compound. Data was analyzed by plotting fluorescence anisotropy values as a function of compound concentration. IC50 values were determined using a four-parameter dose-response (variable slope) and binding affinities were calculated from this IC50 value. This assay is performed in a method analogous to the assay disclosed in: Burns, M. C.; Sun, Q.; Daniels, R. N.; Camper, D. V.; Kennedy, J. P.; Phan, J.; Olejniczak, E. O.; Lee, T.; Waterson, A. G.; Rossanese, O. W.; Fesik, S. W. “Approach for targeting Ras with small molecules that activate SOS-mediated nucleotide exchange” Proc. Natl. Acad. Sci. 2014; 11(9): 3401-3406. PMCID: PMC3948241.

Ras GEF SOS (Son of Sevenless), sequence (P01112 1-166 partner limits assumed, one chain of several): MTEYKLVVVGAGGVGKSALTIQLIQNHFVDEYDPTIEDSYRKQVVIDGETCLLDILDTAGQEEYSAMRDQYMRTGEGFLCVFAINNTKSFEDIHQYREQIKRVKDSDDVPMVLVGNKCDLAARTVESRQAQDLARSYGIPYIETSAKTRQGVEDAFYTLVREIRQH

Structure (SMILES) | EC50 [1] | Ki [2]
CCCN1CC[C@@H](C(=O)c2ccccc2)C1c1cc(Cl)cc2c1nc(N1CCNCC1)n2Cc1ccc(F)c(Cl)c1 (stereo in doubt) [Example 154, ((2S,3R)-2-(6-chloro-1-(3-chloro-4-fluorobenzyl)-2-(piperazin-1-yl)-1H-benzo[d]imidazol-4-yl)-1-propylpyrrolidin-3-yl)(phenyl)methanone trifluoroacetate] | 1 to 5 µM | 1 to 5 µM
Cc1cc2nc(NCCN)n(Cc3ccc(F)c(Cl)c3)c2cc1C [Example 17, N1-(1-(3-chloro-4-fluorobenzyl)-5,6-dimethyl-1H-benzo[d]imidazol-2-yl)ethane-1,2-diamine trifluoroacetate] | 1 to 5 µM | 1 to 5 µM
Cc1cc2nc(N3CCNCC3)n(Cc3cc(F)cc(F)c3)c2cc1C [Example 18, 1-(3,5-difluorobenzyl)-5,6-dimethyl-2-(piperazin-1-yl)-1H-benzo[d]imidazole trifluoroacetate] | 5 to 30 µM | > 5 µM
Cc1cc2nc(N3CCNCC3)n(Cc3ccc(Cl)cc3)c2cc1C [Example 19, 1-(4-chlorobenzyl)-5,6-dimethyl-2-(piperazin-1-yl)-1H-benzo[d]imidazole trifluoroacetate] | 5 to 30 µM | > 5 µM
Cc1cc2nc(N3CCNCC3)n(Cc3ccc(F)cc3)c2cc1C [Example 21, 1-(4-fluorobenzyl)-5,6-dimethyl-2-(piperazin-1-yl)-1H-benzo[d]imidazole trifluoroacetate] | 5 to 30 µM | > 5 µM
Cc1cc2nc(NCCN3CCOCC3)n(Cc3cc(F)cc(F)c3)c2cc1C [Example 31, 1-(3,5-difluorobenzyl)-5,6-dimethyl-N-(2-morpholinoethyl)-1H-benzo[d]imidazol-2-amine trifluoroacetate] | 5 to 30 µM | > 5 µM
Cc1cc2nc(NCCN)n(Cc3cccc(C(F)(F)F)c3)c2cc1C [Example 33, N^1-(5,6-dimethyl-1-(3-(trifluoromethyl)benzyl)-1H-benzo[d]imidazol-2-yl)ethane-1,2-diamine trifluoroacetate] | 1 to 5 µM | > 5 µM
Cc1cc2nc(NCCN)n(Cc3cccc(Br)c3)c2cc1C [Example 35, N^1-(1-(3-bromobenzyl)-5,6-dimethyl-1H-benzo[d]imidazol-2-yl)ethane-1,2-diamine trifluoroacetate] | 1 to 5 µM | 1 to 5 µM
Cc1cc2nc(N3CCNCC3)n(CC3CCCCC3)c2cc1C [Example 37, 1-(cyclohexylmethyl)-5,6-dimethyl-2-(piperazin-1-yl)-1H-benzo[d]imidazole trifluoroacetate] | 5 to 30 µM | > 5 µM
Cc1cc2nc(N3CCNCC3)n(Cc3ccc(F)c(C(F)(F)F)c3)c2cc1C [Example 40, 1-(4-fluoro-3-(trifluoromethyl)benzyl)-5,6-dimethyl-2-(piperazin-1-yl)-1H-benzo[d]imidazole trifluoracetate] | 5 to 30 µM | > 5 µM
Cc1cc2nc(NCCN)n(Cc3cc(C)c(F)c(C)c3)c2cc1C [Example 42, N^1-(1-(4-fluoro-3,5-dimethylbenzyl)-5,6-dimethyl-1H-benzo[d]imidazol-2-yl)ethane-1,2-diamine trifluoroacetate] | 1 to 5 µM | 1 to 5 µM
Cc1cc2nc(NCCCN)n(Cc3cc(C)c(F)c(C)c3)c2cc1C [Example 43, N^1-(1-(4-fluoro-3,5-dimethylbenzyl)-5,6-dimethyl-1H-benzo[d]imidazol-2-yl)propane-1,3-diamine trifluoroacetate] | 5 to 30 µM | > 5 µM

Now from value to molecule:

EC50 [1] | Ki [2] | Structure (SMILES)
5 to 30 µM | 1 to 5 µM | CCCN1CC[C@@H](C(=O)c2ccccc2)C1c1cc(Cl)cc2c1nc(N1CCNCC1)n2Cc1cc(C)c(F)c(C)c1 (stereo in doubt) [Example 149, ((2S,3R)-2-(6-chloro-1-(4-fluoro-3,5-dimethylbenzyl)-2-(piperazin-1-yl)-1H-benzo[d]imidazol-4-yl)-1-propylpyrrolidin-3-yl)(phenyl)methanone trifluoroacetate]
5 to 30 µM | > 5 µM | Fc1ccc(Cn2c(N3CCNCC3)nc3ccccc32)cc1Cl [Example 7, 1-(3-chloro-4-fluorobenzyl)-2-(piperazin-1-yl)-1H-benzo[d]imidazole trifluoroacetate]
30 to 100 µM | > 5 µM | Fc1ccc(Cn2c(N3CCNCC3)nc3ccccc32)cc1 [Example 10, 1-(4-fluorobenzyl)-2-(piperazin-1-yl)-1H-benzo[d]imidazole trifluoroacetate]
1 to 5 µM | 1 to 5 µM | Cc1cc2nc(N3CCNCC3)n(Cc3ccc(F)c(Cl)c3)c2cc1C [Example 16, 1-(3-chloro-4-fluorobenzyl)-5,6-dimethyl-2-(piperazin-1-yl)-1H-benzo[d]imidazole trifluoroacetate]
5 to 30 µM | > 5 µM | Cc1cc2nc(NCCN)n(Cc3ccc(Cl)cc3)c2cc1C [Example 20, N^1-(1-(4-chlorobenzyl)-5,6-dimethyl-1H-benzo[d]imidazol-2-yl)ethane-1,2-diamine trifluoroacetate]
5 to 30 µM | > 5 µM | Cc1cc2nc(NCCN)n(Cc3ccc(F)cc3)c2cc1C [Example 22, N^1-(1-(4-fluorobenzyl)-5,6-dimethyl-1H-benzo[d]imidazol-2-yl)ethane-1,2-diamine trifluoroacetate]
1 to 5 µM | > 5 µM | Cc1cc2nc(N3CCN(C)CC3)n(Cc3ccc(F)cc3)c2cc1C [Example 24, 1-(4-fluorobenzyl)-5,6-dimethyl-2-(4-methylpiperazin-1-yl)-1H-benzo[d]imidazole trifluoroacetate]
5 to 30 µM | > 5 µM | Cc1cc2nc(NCCO)n(Cc3ccc(F)c(Cl)c3)c2cc1C [Example 26, 2-((1-(3-chloro-4-fluorobenzyl)-5,6-dimethyl-1H-benzo[d]imidazol-2-yl)amino)ethan-1-ol]
5 to 30 µM | > 5 µM | Cc1cc2nc(N3CCNCC3)n(Cc3cccc(Br)c3)c2cc1C [Example 34, 1-(3-bromobenzyl)-5,6-dimethyl-2-(piperazin-1-yl)-1H-benzo[d]imidazole trifluoroacetate]
5 to 30 µM | > 5 µM | Cc1cc2nc(N3CCCNCC3)n(Cc3ccc(F)c(Cl)c3)c2cc1C [Example 36, 1-(3-chloro-4-fluorobenzyl)-2-(1,4-diazepan-1-yl)-5,6-dimethyl-1H-benzo[d]imidazole trifluoroacetate]
5 to 30 µM | > 5 µM | Cc1cc2nc(NCCN)n(CC3CCCCC3)c2cc1C [Example 38, N^1-(1-(cyclohexylmethyl)-5,6-dimethyl-1H-benzo[d]imidazol-2-yl)ethane-1,2-diamine trifluoroacetate]
1 to 5 µM | > 5 µM | Cc1cc2nc(N3CCNCC3)n(Cc3ccc(Br)c(Cl)c3)c2cc1C [Example 39, 1-(4-bromo-3-chlorobenzyl)-5,6-dimethyl-2-(piperazin-1-yl)-1H-benzo[d]imidazole trifluoroacetate]
1 to 5 µM | > 5 µM | Cc1cc2nc(N3CCNCC3)n(Cc3cc(C)c(F)c(C)c3)c2cc1C [Example 41, 1-(4-fluoro-3,5-dimethylbenzyl)-5,6-dimethyl-2-(piperazin-1-yl)-1H-benzo[d]imidazole trifluoroacetate]
5 to 30 µM | > 5 µM | Cc1cc2nc(NCCN(C)C)n(Cc3cc(C)c(F)c(C)c3)c2cc1C [Example 44, N^1-(1-(4-fluoro-3,5-dimethylbenzyl)-5,6-dimethyl-1H-benzo[d]imidazol-2-yl)-N^2,N^2-dimethylethane-1,2-diamine trifluoroacetate]
